“Also recorded” adds a separate entry of the source. Ends that are not written are not given here.
Experiments:
[1] = system: MCAK motor domain (His-M, His-NM); assay: Resin-based (glutathione agarose) GST pull-down binding assay; parameters: species or system human; conditions: GST-CT constructs on glutathione agarose beads; purified His-M / His-NM; Coomassie-stained gel
From the text: Kinesin-1 is regulated through an auto-inhibitory mechanism whereby one C-terminal tail binds at the interface of the two motors, such that it creates a second point of attachment in addition to the coiled coil region. This limits the head movement of one kinesin with respect to the other ([Stock et al., 1999]; [Hackney and Stock, 2000]; [Kaan et al., 2011]). We sought to test whether the C-terminal tail domain of MCAK, which has been proposed to regulate MCAK activity ([Moore and Wordeman, 2004]), was sufficient to interact with the motor domain. To do this, we expressed the N-terminal and motor region (residues 1–583, termed NM) or the motor region of MCAK along with the neck linker region (residues 181–583, termed M) as His-tagged proteins, and the C-terminal MCAK tail (residues 700–725, termed CT domain) as a GST fusion protein ([Moore and Wordeman, 2004]; [Hertzer et al., 2006]) (Figure 1A). […] We cannot however exclude a very tight interaction between two CT domains. […] Together, these experiments reveal that the MCAK CT domain interacts with its catalytic domain in solution.
Figure 4. Sequence requirement for the formation of a motor-CT tail complex. (A) Sequence alignment of the conserved CT domain of MCAK for various species alongside the Drosophila kinesin-13 Klp10A and human Kif2a. The conserved residues are highlighted in red. The three amino acids that are critical for binding to the motor domain are marked with a green star. (B) Sequence alignment of the C terminus of human Kif2a, Kif2b, and MCAK/Kif2c. Amino acid numbering is relative to the Kif2a sequence. The MCAK CT domain binding to the motor domain is boxed in green. The sequences were aligned using the program T-coffee (EBI) and formatted with ESPRIPT ([Gouet et al., 1999]). (C) Coomassie-stained gel showing a resin-based binding assay using glutathione agarose beads for purified His-M, binding to the GST-CT and GST-CT point mutants. (D) Size-exclusion chromatography elution profile of the motor domain alone (red dashes), motor incubated with the CT, CTS715E, CTE711A, E712A domains (cyan, green dashes, and purple, respectively). Bottom, coomassie-stained gel showing the size-exclusion chromatography elution of the motor incubated with the CTS715E and CTE711A, E712A domains (green and purple, respectively). DOI: http://dx.doi.org/10.7554/eLife.06421.008
Protein expression was induced by addition of 0.5 mM IPTG to BL21(DE3) Codon plus cells transformed with respective constructs at OD600 of 0.7–0.8 for 16 hr at 18°C. Cells were lysed by sonication in lysis buffer (50 mM Hepes, pH 7.4, 200 mM NaCl, 1 mM MgCl2, 1 mM PMSF, 1 mg/ml DNaseI, 2 mg/ml lysozyme, 10 mM Imidazole) and clarified at 20,000 rpm for 1 hr at 4°C. His-tagged and GST-tagged proteins were subsequently purified using Ni-NTA–agarose beads and glutathione-sepharose beads, respectively (GE Healthcare Life Sciences, UK)) according to the manufacturer's guidelines. MCAK constructs containing the motor domain were eluted with elution buffer (50 mM Hepes, pH 7.4, 200 mM NaCl, 1 mM MgCl2, 1 mM ATP, and 300 mM imidazole). Cleavage of the GST tag was performed using the GST-3C protease overnight at 4°C. Proteins were further purified using gel filtration chromatography pre-equilibrated in gel filtration buffer (For full-length MCAK: 100 mM HEPES, pH 7.3, 200 mM NaCl, 200 mM KCl, 1 mM DTT, 1 mM MgCl2, 1 mM Na-EGTA, 1 mM ATP; for the motor domain constructs: 50 mM HEPES, pH 7.2, 150 mM NaCl, 1 mM DTT, 1 mM MgCl2, 1 mM Na-EGTA, 1 mM ATP; for CT domain constructs: 50 mM HEPES, pH 7.2, 150 mM NaCl, 1 mM DTT, 1 mM MgCl2, 1 mM Na-EGTA). Analytical gel filtration chromatography was performed using either a Superdex 75 or a Superose 6 10/300 GL column (GE Healthcare, UK). To purify the CT domain alone, we cleaved GST and CT after gel filtration and a concentration step, and performed a glutathione affinity-purification third step to remove the GST and collect the CT domain. […]

[2] = system: taxol-stabilized microtubules; assay: Microtubule cosedimentation assay, untreated microtubules; format: binding; conditions: 100 nM full-length MCAKS715E, 2 μM taxol-stabilized microtubules, increasing free CT or CTS715E; repeated three times
Procedure: Full-length MCAK complex was diluted in S buffer (50 mM NaCl, 20 mM Hepes pH 7.0) to 50 nM, in absence of nucleotide to prevent MCAK-dependent microtubule depolymerisation. To assemble an MCAK motor-CT domain complex, 50 nM of the motor domain and 100 nM of the CT domain were used. Microtubule binding assays were performed as described ([Cheeseman et al., 2006]) using equal volumes of taxol-stabilized microtubules in BRB80 and MCAK in S buffer. MCAK was quantified using anti-MCAK antibody against the C terminus of MCAK (709[…]720), generated by GL Biochem (Shangai) Ltd (China) or anti-His antibody to probe for the motor domain alone (GE Healthcare Lifesciences, UK). The data from at least three independent experiments were fitted to a modified Hill equation to determine the apparent Kd.

MCAK motor domain = biological target: T1, MCAK motor domain (Homo sapiens, UniProt Q99661); assay: Analytical size-exclusion chromatography (motor-CT complex formation); format: binding; conditions: Superdex 75 or Superose 6 10/300 GL; Coomassie-stained gel of fractions
T1 construct: His-MCAK (183–583, M) and His-MCAK (1–583, NM) were subcloned in pET3aTr vector; made in house; host or cells: E. coli BL21(DE3) Codon plus
From the text: Full-length MCAK is a dimer in solution ([Maney et al., 2001]). Therefore, we sought to test whether the CT domain interacts with one or two motor domains. To define the stoichiometry of this interaction, we subjected the complex to analytical size-exclusion chromatography. The motor domain alone behaves as a monomer and eluted with an apparent size of ∼45 kDa. […] Using SDS-PAGE analysis, we confirmed that the shift to a larger complex was due to the interaction of the motor domain with the CT domain (Figure 1C, bottom). […] The predicted masses for complexes of one and two CT domains bound to two motor domains are ∼94.2 and 97.7 kDa, respectively. […] Since the CT domain is unlikely to dimerize alone (Figure 1B), we conclude that the MCAK CT domain induces the dimerization of the motor domains cooperatively.
Protein expression was induced by addition of 0.5 mM IPTG to BL21(DE3) Codon plus cells transformed with respective constructs at OD600 of 0.7–0.8 for 16 hr at 18°C. Cells were lysed by sonication in lysis buffer (50 mM Hepes, pH 7.4, 200 mM NaCl, 1 mM MgCl2, 1 mM PMSF, 1 mg/ml DNaseI, 2 mg/ml lysozyme, 10 mM Imidazole) and clarified at 20,000 rpm for 1 hr at 4°C. His-tagged and GST-tagged proteins were subsequently purified using Ni-NTA–agarose beads and glutathione-sepharose beads, respectively (GE Healthcare Life Sciences, UK)) according to the manufacturer's guidelines. MCAK constructs containing the motor domain were eluted with elution buffer (50 mM Hepes, pH 7.4, 200 mM NaCl, 1 mM MgCl2, 1 mM ATP, and 300 mM imidazole). Cleavage of the GST tag was performed using the GST-3C protease overnight at 4°C. […] Protein concentrations were determined with a combination of Bradford protein assays and densitometry of Coomassie-stained gels relative to a BSA standard. […]

[3] = system: MCAK motor domain (Cys287); assay: Covalent (disulphide) attachment of the CT domain to the motor domain; format: binding, human
Procedure: The GST-CTE712C and CTE712C domains were cross-linked to the motor domain by incubating them with the motor domain in a buffer containing 100 mM HEPES, pH 7.4, 150 mM NaCl but lacking DTT for 1 hr at 4°C. As a negative control the motor domain and the CTE712C domain were incubated in the identical buffer, supplemented with 5 mM DTT.

T1 sequence (Q99661 183-583): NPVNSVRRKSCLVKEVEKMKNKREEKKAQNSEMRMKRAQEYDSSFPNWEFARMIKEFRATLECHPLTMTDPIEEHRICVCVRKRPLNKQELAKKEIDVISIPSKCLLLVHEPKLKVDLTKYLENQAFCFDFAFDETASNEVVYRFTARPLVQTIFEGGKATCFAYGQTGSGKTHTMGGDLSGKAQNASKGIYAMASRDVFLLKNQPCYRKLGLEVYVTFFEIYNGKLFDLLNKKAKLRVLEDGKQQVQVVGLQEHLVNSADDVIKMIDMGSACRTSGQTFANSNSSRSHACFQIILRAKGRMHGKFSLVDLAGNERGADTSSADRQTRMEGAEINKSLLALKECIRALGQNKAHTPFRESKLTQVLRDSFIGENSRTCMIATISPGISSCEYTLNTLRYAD

Substance | binding to the motor domain of MCAK [1] | other results
CTE711A, E712A: CT domain point mutant E711A, E712A (VIKALRLAMQLAAQASRQISSKKRPQ; not fully specified) | no longer bound to the motor domain of MCAK | –
CTI718A: CT domain point mutant I718A (VIKALRLAMQLEEQASRQASSKKRPQ; not fully specified) | bound robustly | –
CTR716A: CT domain point mutant R716A (VIKALRLAMQLEEQASAQISSKKRPQ; not fully specified) | bound robustly | –
CTS715E: CT domain point mutant S715E (VIKALRLAMQLEEQAERQISSKKRPQ; left off: GST, end not stated, cleaved) | – | effect of free CT domain on MCAKS715E binding to microtubules [2]: did not interfere with MCAKS715E binding to microtubules; binding to / co-migration with motor domain by gel filtration (MCAK motor domain): did not co-migrate
GST-CT: C-terminal MCAK tail (residues 700–725) as a GST fusion protein (VIKALRLAMQLEEQASRQISSKKRPQ; also: GST fusion partner not in chain) | bound to both the NM and M domains of MCAK as a stable complex; also recorded: bound to the motor domain | –
GST-CTE712C: cleavable GST fusion of CTE712C domain (VIKALRLAMQLECQASRQISSKKRPQ; also: GST fusion partner not in chain) | – | binding to / co-migration with motor domain by gel filtration (MCAK motor domain): eluted as a single peak, earlier than the peak for the motor alone; efficiency of disulphide bridge formation with motor domain ([3]; absence of DTT, Coomassie-stained gel): ~50%; formation of covalent complex with motor ([3]; oxidizing conditions (without DTT), 100 mM HEPES pH 7.4, 150 mM NaCl, 1 hr at 4°C): formed a covalent complex
GST-CTS715A: GST fusion of CT domain S715A (VIKALRLAMQLEEQAARQISSKKRPQ; also: GST fusion partner not in chain) | bound to the motor domain | –
GST-CTS715E: GST fusion of CT domain S715E (VIKALRLAMQLEEQAERQISSKKRPQ; also: GST fusion partner not in chain) | did not interact with the motor domain | –

— paper PMC4443670, “The C-terminal region of the motor protein MCAK controls its structure and activity through a conformational switch” (eLife, 2015)
